Measurements as given in patent US11471451B2, “Uses of crenolanib” (Arog Pharmaceuticals, Inc., priority 2019, dated 2022).

Assays:
Format in all cases: in vivo, human
FLT3 mutated AML = assay: Example 1: newly diagnosed AML patient with activating FLT3 mutations; crenolanib besylate with induction and consolidation chemotherapy, then single agent maintenance; bone marrow biopsy
Protocol: (§1) A person was diagnosed with AML with monocytic differentiation in 2016. […] To treat this patient's disease and overcome the FLT3 mutations, this patient was provided oral crenolanib besylate in combination with standard chemotherapy on a clinical trial for newly diagnosed AML patients with activating FLT3 mutations. The patient was treated with induction chemotherapy, comprised of seven days of cytarabine and three days of daunorubicin, followed by 100 mg of crenolanib besylate three times daily starting on day 10 of treatment.
In an effort to maintain remission, the patient was then administered four cycles of high dose cytarabine consolidation chemotherapy. In each cycle, the patient received cytarabine chemotherapy at standard doses, followed by oral crenolanib besylate at 100 mg three times daily starting 48 hours after the last dose of chemotherapy and continuing until 72 hours before the start of the next cycle of chemotherapy. […] Due to the aggressive nature of FLT3 mutated AML, the patient continued to receive single agent crenolanib besylate therapy at 100 mg three times daily for 12 months, known as maintenance.

[1] = test system: t(9; 11)+AML with FLT3-A848P mutation; assay: Example 8: pediatric relapsed t(9; 11)+AML patient; crenolanib besylate after liposomal chemotherapy and gemtuzumab ozogamicin
[2] = test system: AML with FLT3-ITD mutation; assay: Example 3: newly diagnosed AML patient (FLT3-ITD, NRAS, NPM1); crenolanib besylate with standard chemotherapy
Protocol: as §1, with “AML” for “AML with monocytic differentiation”, “mutation,” for “mutations,”, “mutations. […]” for “mutations.”
In an effort to maintain remission, the patient was then administered one cycle of high dose cytarabine consolidation chemotherapy, followed by oral crenolanib besylate at 100 mg three times daily starting 48 hours after the last dose of chemotherapy.

[3] = test system: FLT3 Variants, FLT3 Activating Mutations, and Co-Occurring Mutations; assay: Example 1: single cell DNA sequencing (TAPESTRI) of longitudinal bone marrow samples; settings: for Variant allele frequency FLT3 D835E: D1 0%; for Variant allele frequency DNMT3A R882H / Variant allele frequency FLT3 D839G / Variant allele frequency KRAS G12D / Variant allele frequency NRAS G13V: D1 1%; for Variant allele frequency FLT3 N841K: D1 18%; for Variant allele frequency FLT3 A680V: D1 20%; for Variant allele frequency FLT3 ITD: D1 22%; for Variant allele frequency DNMT3A R882C: D1 41%; for Variant allele frequency NPM1 dupTCTG: D1 44%
Protocol: In one aspect of the invention pertains to single cell sequencing analysis of recurrent AML genetic mutations that is performed using the […]™ platform. To use said platform, a cell suspension is introduced onto the platform using microfluidics, and each cell is then encapsulated in an oil droplet along with a protease to aid in DNA isolation. Cells are then lysed and loaded back onto the […]™ platform, where each single nucleus is encapsulated with a unique DNA based barcode linked to acrylamide-based beads and PCR master mix and primer sets against recurrent AML mutant genes in an oil droplet. These droplets are directly deposited in PCR tubes and exposed to UV light to release the barcodes. Subsequently the barcoded genomic DNA within the droplets can be amplified according to standard PCR amplification techniques. In this same aspect the PCR products are then isolated using standard molecular biology techniques and then libraries prepared for next-generation sequencing compatible with Illumina platforms (including MiSeq, HiSeq, and NovaSeq), followed by sequencing said libraries on one of the validated Illumina platforms (including MiSeq, HiSeq, and NovaSeq). In the same aspect, the sequencing contains at least 1,000,000 reads per sample, and the allele dropout out rate is at most 10%. Next-generation sequencing data can be analyzed at least one of but not limited to using […] Pipeline to generate genetic variant calls followed by […] Insight for final analysis including determining co-occurring genetic mutations, or standard next generation sequencing (NGS) analysis methods known to one skilled in the art.
The present invention includes the follow method of preparing single cell DNA sequencing. One example is a single-cell multi-omic assay for detecting single nucleotide variants, copy number variants, and protein changes simultaneously from the same cell, such as […]™. Mononuclear cells were isolated from bone marrow samples via FICOLL-PAQUE® gradient, resuspended in a 10% DMSO solution and frozen at −20° C. until needed. Single cell suspensions were prepared from thawed mononuclear cell samples to final concentrations indicated by the manufacturer's instructions, then loaded onto the […]™ instrument. According to the manufacturer, the […]™ platform uses microfluidics to separate single cells, encapsulate each cell within a […] droplet, proteases are added to each droplet to aid in DNA isolation. Cell encapsulation, targeted PCR, and next generation library preparation were performed per the […]™ platform's manufacturer's instructions using the […]™ platform and the Thermo Fisher SimpliAmp thermal cycler (cat #A24811, or equivalent). The prepared single-cell DNA library was sequenced using Illumina's MiSeq instrument, per the manufacturer's instructions. Analysis of these next-generation sequencing data was performed by first processing the sequencing data using the […] Pipeline (available on the Mission Bio website) to ultimately generate variant calls. The resultant loom files are then imported into the […]™ bioinformatics software, Insight, which is used to identify relevant variants, including co-occurring and rare mutations.
Longitudinal bone marrow samples obtained throughout the course of treatment were analyzed using single cell sequencing. […]

[4] = Consolidation (D237), HiDAC + crenolanib
[5] = Induction (D53), induction chemotherapy + crenolanib
[6] = Maintenance (D294), single agent crenolanib besylate
[7] = Maintenance (D406), completion of single agent maintenance

Compound: CC1(COc2ccc3c(c2)ncn3-c2ccc3cccc(N4CCC(N)CC4)c3n2)COC1 [crenolanib, 4-Piperidinamine, 1-[2-[5-[(3-methyl-3-oxetanyl)methoxy]-1H-benzimidazol-1-yl]-8-quinolinyl]]
- response (FLT3 mutated AML; day 35, after induction chemotherapy with crenolanib): morphologic complete remission
- remission status (FLT3 mutated AML; day 237, after four cycles of high dose cytarabine consolidation with crenolanib besylate 100 mg three times daily): remained in morphologic remission
- remission status (FLT3 mutated AML; day 406, completion of single agent crenolanib besylate maintenance, 100 mg three times daily): remained in morphologic remission
- bone marrow blasts (FLT3 mutated AML; person, 63% at presentation, day 35, cytarabine 7 days + daunorubicin 3 days, then 100 mg crenolanib besylate three times daily from day 10): less than 5%
- remission status ([1]; more than 100 days post-transplant, crenolanib until one week prior to allogeneic stem cell transplant): still in remission
- response ([1]; one month after starting 66.7 mg/m^2 crenolanib besylate orally, begun five days after VYXEOS and gemtuzumab ozogamicin): complete morphologic remission without count recovery
- FLT3-ITD mutation ([2]; day 24, PCR based test): no longer detected
- response ([2]; day 24, crenolanib combination therapy): complete morphologic remission
- remission status ([2]; day 98, after one cycle of high dose cytarabine consolidation followed by crenolanib besylate 100 mg three times daily): remained in remission
- FLT3-ITD mutation ([2]; day 98, standard PCR tests): remained undetectable
- bone marrow blasts ([2]; person, baseline 8%, day 24, cytarabine 7 days + daunorubicin 3 days, then 100 mg crenolanib besylate three times daily from day 10): 5%
- Variant allele frequency FLT3 D835E [3, 4]: 0%
- Variant allele frequency DNMT3A R882H [3, 4]: 1%
- Variant allele frequency FLT3 D839G [3, 4]: 1%
- Variant allele frequency KRAS G12D [3, 4]: 1%
- Variant allele frequency NRAS G13V [3, 4]: 0%
- Variant allele frequency FLT3 N841K [3, 4]: 0%
- Variant allele frequency FLT3 A680V [3, 4]: 1%
- Variant allele frequency FLT3 ITD [3, 4]: 0%
- Variant allele frequency DNMT3A R882C [3, 4]: 5%
- Variant allele frequency NPM1 dupTCTG [3, 4]: 0%
- Variant allele frequency FLT3 D835E [3, 5]: 1%
- Variant allele frequency DNMT3A R882H [3, 5]: 3%
- Variant allele frequency FLT3 D839G [3, 5]: 3%
- Variant allele frequency KRAS G12D [3, 5]: 0%
- Variant allele frequency NRAS G13V [3, 5]: 0%
- Variant allele frequency FLT3 N841K [3, 5]: 0%
- Variant allele frequency FLT3 A680V [3, 5]: 0%
- Variant allele frequency FLT3 ITD [3, 5]: 3%
- Variant allele frequency DNMT3A R882C [3, 5]: 0%
- Variant allele frequency NPM1 dupTCTG [3, 5]: 4%
- Variant allele frequency FLT3 D835E [3, 6]: 0%
- Variant allele frequency DNMT3A R882H [3, 6]: 0%
- Variant allele frequency FLT3 D839G [3, 6]: 0%
- Variant allele frequency KRAS G12D [3, 6]: 0%
- Variant allele frequency NRAS G13V [3, 6]: 0%
- Variant allele frequency FLT3 N841K [3, 6]: 0%
- Variant allele frequency FLT3 A680V [3, 6]: 0%
- Variant allele frequency FLT3 ITD [3, 6]: 0%
- Variant allele frequency DNMT3A R882C [3, 6]: 6%
- Variant allele frequency NPM1 dupTCTG [3, 6]: 0%
- Variant allele frequency FLT3 D835E [3, 7]: 0%
- Variant allele frequency DNMT3A R882H [3, 7]: 0%
- Variant allele frequency FLT3 D839G [3, 7]: 0%
- Variant allele frequency KRAS G12D [3, 7]: 0%
- Variant allele frequency NRAS G13V [3, 7]: 0%
- Variant allele frequency FLT3 N841K [3, 7]: 0%
- Variant allele frequency FLT3 A680V [3, 7]: 0%
- Variant allele frequency FLT3 ITD [3, 7]: 0%
- Variant allele frequency DNMT3A R882C [3, 7]: 8%
- Variant allele frequency NPM1 dupTCTG [3, 7]: 0%
- remaining FLT3 and KRAS mutations ([3]; after approximately two months of single agent maintenance therapy): cleared
- remaining FLT3 and KRAS mutations ([3]; at the completion of maintenance therapy): remained absent
- all variant FLT3 clones ([3]; by day 79 into maintenance): cleared
- mutant containing cancer cell populations (FIGS. 2-4 scatter plots) ([3]; diagnosis versus 35 days following the start of induction): eliminated the vast majority
- NPM1 and FLT3-ITD ([3]; following consolidation): clearance
- variant FLT3 and FLT3 activating mutations (FIG. 1) ([3]; induction chemotherapy with crenolanib, HiDAC consolidation with crenolanib, single agent crenolanib maintenance): eliminated
